According to patent US20100113301A1, “METHOD FOR THE IDENTIFICATION AND/OR THE QUANTIFICATION OF A TARGET COMPOUND OBTAINED FROM A BIOLOGICAL SAMPLE UPON CHIPS” (Eppendorf Array Technologies, priority 1999, published 2010):
“And” between values parts separate entries of the source, which are not always exact repeats. Identical values can stand only once.

Tested on: Rat Liver Gene Expression
Assay: Rat liver gene expression on Rat HepatoChips microarrays, colorimetric silver detection
Details: liver mRNA of treated rat, 100 mg/kg per day orally for 4 days, raw spot intensity mean, 100 mg/kg/day
Experimental: Female Sprague-Dawley CD rats (aged 10-12 weeks) were dosed orally with 100 mg/kg per day of either Sodium Phenobarbitone (PB) or pregnenalone 16-carbonitrile (PCN) (Sigma-Aldrich Co. Poole, Dorset, UK) for 4 days. Control animals received corresponding quantities (5 ml/kg body weight) of the 0.56% (w/v) gum tragacanth vehicle. Animals were killed by decapitation and the livers immediately removed for further mRNA extraction.
The arrays also include positive and negative controls for the hybridization process, an internal standard control and 8 housekeeping genes.
The Rat HepatoChips is composed of single strand DNA probes attached to the glass by a covalent link. The length of the DNA nucleotide sequences has been optimized. They are the same for all genes and are located near the 3′ end of the transcript. All probes have been designed to be gene specific and have been prepared using rat cDNAs.
Labeled cDNA was prepared using 2 μg mRNA isolated using the FastTrack 2.0 mRNA isolation Kit (Invitrogen). A synthetic poly (A)+tailed mRNA was spiked to the purified mRNA as internal standard to assist in quantification and estimation of experimental variation introduced during labeling and reading. mRNA was added to 2 μl of oligo dT(12-18) primer (0.5 μg/ul) (Gibco BRL), RNase free water was used to bring the volume to 9 μl, and the mixture was denatured at 70° C. for 10 min and then chilled on ice for 5 min. The reverse transcription was performed by adding the following components to the annealed probe/template on ice: 4 μl of First Strand Buffer (250 mM Tris-HCl pH 8.3, 375 mM KCl, 15 mM MgCl2) (Gibco BRL), 2 ul of DTT 0.1 M (Gibco BRL), 40 units of RNasin ribonuclease inhibitor (Promega), 500 μM dATP (Roche), 500 μM dTTP (Roche), 500 μM dGTP (Roche), 80 μM dCTP (Roche), 80 μM biotin-1′-dCTP (NEN). The reaction mixture was mixed gently by flicking the tube and incubated for 5 min at room temperature. 300 units of SuperScript II RT (RNase H—) (Gibco BRL) was added to the reaction mixture and the reverse transcription was allowed to proceed for 90 min at 42° C. Then an additional 300 units of SuperScript II RT was added and incubation was continued at 42° C. for another 90 min. The reaction was ended by heat inactivation at 70° C. for 15 min. To remove RNA complementary to the cDNA, a treatment with RNase H was performed at 37° C. for 20 min following by a heat denaturation at 95° C. for 3 minutes and cooled on ice before use. No further RT product purification was necessary.
The hybridization was performed in a hybridization chamber (Biozym, Landgraaf, The Netherlands) containing the hybridization buffer ‘Hepatobuffer’ and a positive hybridization control (a biotinylated amplicons, at a concentration of 25 nM). Hybridization was carried out overnight at 60° C. The arrays were then washed four times for 2 min with washing buffer at room temperature.
The presence of biotinylated hybrids on the microarray was detected using a antibody anti-biotin conjugate coupled colloidal gold. The arrays were then incubated with a 1:100 dilution of conjugate solution in a blocking buffer (100 mM maleic buffer pH 7.5, 150 mM NaCl and 0.1% milk powder) for […] at room temperature. The array were then washed five times for 2 min at room temperature, rinsed briefly with deionized water then dried. Then array is incubated at room temperature for 5 min in the Silver Blue Solution (AAT, Namur, Belgium), rinsed in water, dried 5′ at 37° C. and read with the scanner described herein.
The scanner used had the following scanning parameters:
Bit depth: 16 bits grayscale (65536 grey levels)
no additional correction of the image (i.e. standard values for contrast, brightness, . . . )
Scanning software: Silverfast from LaserSoft
Quantification Software: Imagene 4.2 from Biodiscovery

## CCC1(c2ccccc2)C(=O)NC(=O)NC1=O [phenobarbital, Sodium Phenobarbitone]
Gene ACO
  Test Signal, ACO: 51686 16-bits grayscale and 51619 16-bits grayscale
Gene Albumin
  Test Signal, Albumin: 63921 16-bits grayscale and 63641 16-bits grayscale
Gene ApoJ
  Test Signal, ApoJ: 52452 16-bits grayscale and 55866 16-bits grayscale
Gene B-actin
  Test Signal, B-actin: 52992 16-bits grayscale and 55039 16-bits grayscale
Gene Bax
  Test Signal, Bax: 24767 16-bits grayscale and 27814 16-bits grayscale
Gene Bcl-2
  Test Signal, Bcl-2: 21220 16-bits grayscale and 21509 16-bits grayscale
Gene C-jun
  Test Signal, C-jun: 22382 16-bits grayscale and 23523 16-bits grayscale
Gene C-myc
  Test Signal, C-myc: 27229 16-bits grayscale and 28315 16-bits grayscale
Gene C/EBP
  Test Signal, C/EBP: 31394 16-bits grayscale and 31754 16-bits grayscale
Gene Cox-2
  Test Signal, Cox-2: 20187 16-bits grayscale and 20484 16-bits grayscale
Gene Cyclin D1
  Test Signal, Cyclin D1: 25036 16-bits grayscale and 25587 16-bits grayscale
Gene Cyp 1a1
  Test Signal, Cyp 1a1: 20728 16-bits grayscale and 20972 16-bits grayscale
Gene Cyp 1b1
  Test Signal, Cyp 1b1: 22231 16-bits grayscale and 21071 16-bits grayscale
Gene Cyp 2b
  Test Signal, Cyp 2b: 62971 16-bits grayscale and 62867 16-bits grayscale
Gene Cyp 3a
  Test Signal, Cyp 3a: 63098 16-bits grayscale and 63114 16-bits grayscale
Gene Cyp 4a1
  Test Signal, Cyp 4a1: 35089 16-bits grayscale and 35673 16-bits grayscale
Gene Cyt oxidase 1
  Test Signal, Cyt oxidase 1: 63947 16-bits grayscale and 62432 16-bits grayscale
Gene Elk
  Test Signal, Elk: 20632 16-bits grayscale and 20630 16-bits grayscale
Gene Enoyl CoA
  Test Signal, Enoyl CoA: 60758 16-bits grayscale and 60738 16-bits grayscale
Gene Erk-1
  Test Signal, Erk-1: 22998 16-bits grayscale and 23360 16-bits grayscale
Gene Ferritin
  Test Signal, Ferritin: 60237 16-bits grayscale and 59913 16-bits grayscale
Gene Fibronectin
  Test Signal, Fibronectin: 47542 16-bits grayscale and 50240 16-bits grayscale
Gene GADD45
  Test Signal, GADD45: 22359 16-bits grayscale and 22287 16-bits grayscale
Gene GADD153
  Test Signal, GADD153: 23334 16-bits grayscale and 23216 16-bits grayscale
Gene GAPDH
  Test Signal, GAPDH: 58466 16-bits grayscale and 60437 16-bits grayscale
Gene GSH reductase
  Test Signal, GSH reductase: 24281 16-bits grayscale and 23937 16-bits grayscale
Gene Glutathione Theta 5
  Test Signal, Glutathione Theta 5: 30062 16-bits grayscale and 32113 16-bits grayscale
Gene Glutatione Ya
  Test Signal, Glutatione Ya: 63398 16-bits grayscale and 63872 16-bits grayscale
Gene HGF
  Test Signal, HGF: 21195 16-bits grayscale and 20996 16-bits grayscale
Gene HGPT
  Test Signal, HGPT: 26564 16-bits grayscale and 27506 16-bits grayscale
Gene HMG
  Test Signal, HMG: 34978 16-bits grayscale and 36070 16-bits grayscale
Gene Histone Dacetyl
  Test Signal, Histone Dacetyl: 21846 16-bits grayscale and 21766 16-bits grayscale
Gene Hox2
  Test Signal, Hox2: 30000 16-bits grayscale and 29975 16-bits grayscale
Gene Hsp 70
  Test Signal, Hsp 70: 23738 16-bits grayscale and 22628 16-bits grayscale
Gene II6
  Test Signal, II6: 20776 16-bits grayscale and 20646 16-bits grayscale
Gene IKB
  Test Signal, IKB: 21781 16-bits grayscale and 21227 16-bits grayscale
Gene JNK
  Test Signal, JNK: 20743 16-bits grayscale and 20935 16-bits grayscale
Gene MDR1
  Test Signal, MDR1: 27172 16-bits grayscale and 26841 16-bits grayscale
Gene Macroglobulin
  Test Signal, Macroglobulin: 32619 16-bits grayscale and 33165 16-bits grayscale
Gene Mgmt
  Test Signal, Mgmt: 23373 16-bits grayscale and 23981 16-bits grayscale
Gene MnSOD
  Test Signal, MnSOD: 26695 16-bits grayscale and 26251 16-bits grayscale
Gene Myr
  Test Signal, Myr: 22905 16-bits grayscale and 22579 16-bits grayscale
Gene NFKB
  Test Signal, NFKB: 21439 16-bits grayscale and 21343 16-bits grayscale
Gene ODC
  Test Signal, ODC: 23381 16-bits grayscale and 23303 16-bits grayscale
Gene P38
  Test Signal, P38: 26227 16-bits grayscale and 28841 16-bits grayscale
Gene P53
  Test Signal, P53: 25848 16-bits grayscale and 25221 16-bits grayscale
Gene PCNA
  Test Signal, PCNA: 23374 16-bits grayscale and 23609 16-bits grayscale
Gene PPAR
  Test Signal, PPAR: 20767 16-bits grayscale and 20704 16-bits grayscale
Gene Phospho A2
  Test Signal, Phospho A2: 21966 16-bits grayscale and 21421 16-bits grayscale
Gene S29
  Test Signal, S29: 50843 16-bits grayscale and 53202 16-bits grayscale
Gene Smp30
  Test Signal, Smp30: 32696 16-bits grayscale and 31894 16-bits grayscale
Gene TGFbRII
  Test Signal, TGFbRII: 22149 16-bits grayscale and 23021 16-bits grayscale
Gene TNF
  Test Signal, TNF: 21082 16-bits grayscale and 20767 16-bits grayscale
Gene Telomerase
  Test Signal, Telomerase: 23256 16-bits grayscale and 22745 16-bits grayscale
Gene Transferrin
  Test Signal, Transferrin: 61525 16-bits grayscale and 61527 16-bits grayscale
Gene Tubulin
  Test Signal, Tubulin: 36262 16-bits grayscale and 36054 16-bits grayscale
Gene UDPGT1a6
  Test Signal, UDPGT1a6: 22769 16-bits grayscale and 22766 16-bits grayscale
Gene UDPGT1a
  Test Signal, UDPGT1a: 52205 16-bits grayscale and 50981 16-bits grayscale
Gene Ubiquitin
  Test Signal, Ubiquitin: 59171 16-bits grayscale and 59613 16-bits grayscale
